Experiments:
phosphorylated ZAP70 = assay: Phosphorylated ZAP70 in circulating CD8+ T cells after oral dosing of cynomolgus monkeys (flow cytometry, ex vivo anti-CD3/CD28 stimulation)
Procedure: (§1) To assess these proximal biomarkers of Cbl-b inhibition on CD8^+ T cells, pharmacodynamic analysis was performed in conjunction with a pharmacokinetic study conducted at Charles River Laboratories. Circulating blood was obtained from cynomolgus monkeys treated with 0.3, 1, 3 or 10 mg/kg of Compound 23 after a single dose and after 3 doses. The response to Cbl-b inhibition on proximal biomarkers (pHS1, pPLCγ2, and pZAP70) was measured in CD8^+ T cells using flow cytometry. This technique is highly quantitative and can measure multiple phosphorylation markers in different cell populations within the same sample.
(§2) Compound 23 was formulated in vehicle (0.2% Tween 80 in DI water+1 eq HCL) and aliquoted into individual (not serially diluted) dosing solutions of 0.3, 1, 3 and 10 mg/mL by stirring for 5-10 min, vortexing, and sonicating again as necessary to produce an even suspension that was stirred constantly at 4° C. to achieve and maintain a homogenous suspension. To prepare vehicle, 0.2% Tween 80 in deionized (DI) water, water was measured into a beaker with continuous stirring. Tween 80 was added sequentially, and stirring continued until the solution dissolved; the solution was stored at 2-8° C.
(§3) For pharmacodynamic analysis, whole blood was obtained from cynomolgus monkeys and used for flow cytometry assays to evaluate phosphorylated biomarkers, pHS1, pPLCγ2, and pZAP70, in circulating CD8^+ T cells.
(§4) On the day of dosing, blood samples were collected via femoral venipuncture in accordance with test facility standard operating procedures. 1 mL/tube of whole blood was collected pre-dose (time 0) and at 0.5, 1, 2, 4, 6, and 24 hours post-dose and added into 2 types of TruCulture tubes (Myriad) for pharmacodynamic analysis. One tube contained media alone and is denoted as “Null”, and the second tube contained 2 μg/mL anti-CD3 and anti-CD28, which were prepared at Nurix prior to the study using cynomolgus specific anti-CD3 (BD Biosciences; SP34-2) and anti-CD28 (Bio X cell; CD28.2) and denoted as “CD3/CD28”. Tubes were shipped by overnight courier on cold pack the day of collection and analyzed for phosphorylated biomarkers of Cbl-b inhibition by flow cytometry.
(§5) Following PD collection, upon receipt of TruCulture tubes, each tube was inverted 5-6 times to ensure a mixed suspension of blood. 30 μg of goat anti-mouse IgG (H+L) antibody (Invitrogen) was added to cross-link the stimulation antibodies and induce synchronized cellular stimulation. Cells were stimulated for 60 minutes alongside non-stimulated controls for each time point.
All buffers (Phosflow Lyse/Fix Buffer 5×, Phosflow Perm Buffer I; BD Biosciences) were prepared according to the manufacturer's instructions. After 60 minutes of goat anti-mouse IgG (H+L) antibody stimulation, one volume of blood was mixed with 20 volumes of pre-warmed BD Phosflow Lyse/Fix Buffer (1×) by repeated pipetting (8-10 times), then incubated in a 37° C. water bath for 10 min. Cells were washed and centrifuged at 500×g for 5 min (2×) with PBS. Following centrifugation, cell pellets were resuspended in cold BD Phosflow Perm Buffer I (BD) and incubated at 4° C. for 20 min. […]

pY397-HS1 = assay: Phosphoprotein screen in human whole blood with CBL inhibitor at 10 uM: HS1; format: cell-based; conditions: 1 hr 37° C., human whole blood 8 donors, anti-CD3/CD28 + crosslinker 60 minutes
Procedure: (§6) To identify proximal biomarkers of CBL-B inhibition in immune cells, a panel of phosphorylated proteins were screened in human whole blood incubated with CBL-B inhibitor and concomitant anti-CD3 and anti-CD28 antibodies. The effect of CBL-B inhibition was assessed across multiple cellular signaling networks.
(§7) Human heparinized whole blood from 8 donors was received after an overnight shipment at 4° C. The blood was plated, treated with CBL inhibitor at 10 uM and incubated at 37° C. for 60 minutes. After incubation, the cells were stimulated with anti-CD3/CD28 followed by a cross-linking antibody (30 μg of goat anti-mouse IgG (H+L) antibody (Invitrogen)). After 60 minutes, the cells were fixed, and stained using surface markers for T cells (CD3^+CD4^+& CD3^+CD8^+) and analyzed by flow cytometry for target phosphorylation of the following markers: pY180/pY511-ITK, pY397-HS1, pY759-PLCg2, pY783-PLCg1, pY525/pY526/pY348-SYK & pY319-Zap70.
(§8) Fold change of each biomarker was calculated with the following example equation: […]
(§9) Whole blood from eight human donors was collected in sodium heparin anti-coagulant treated with 10 μM of Compound 23 for 1 hr at 37° C. […] Fold change of % phosphorylation normalized to DMSO was quantitated in T cells (CD8^+) using flow cytometry is provided in FIGS. 6A-6B.

phosphorylated PLCγ2 = assay: Phosphorylated PLCγ2 in circulating CD8+ T cells after oral dosing of cynomolgus monkeys (flow cytometry, ex vivo anti-CD3/CD28 stimulation)
Procedure: as §1, §2, §3, §4, §5
All buffers (Phosflow Lyse/Fix Buffer 5×, Phosflow Perm Buffer I; BD Biosciences) were prepared according to the manufacturer's instructions. […]

pY783-PLCg1 = assay: Phosphoprotein screen in human whole blood with CBL inhibitor at 10 uM: PLCγ1; format: cell-based; conditions: 1 hr 37° C., human whole blood 8 donors, anti-CD3/CD28 + crosslinker 60 minutes
Procedure: as §6, §7, §8, §9

[1] = multiple doses of 10 mg/kg, 3 days of daily oral dosing
[2] = multiple doses of 10 mg/kg, 4 hours post dose
[3] = single dose oral 10 mg/kg, circulating CD8+ T cells, anti-CD3/CD28 stimulated

SMILES: C[C@H]1CCCN(Cc2cc3c(c(C(F)(F)F)c2)CN(c2cccc([C@]4(c5nncn5C)C[C@@H](C)C4)c2)C3=O)C1 [Compound 23]
- phosphorylated ZAP70 in comparison to baseline (phosphorylated ZAP70; [1]): significant increases
- time of peak increase of phosphorylated ZAP70 (phosphorylated ZAP70; [2]): 76 h
- time of maximal signal, phosphorylated ZAP70 (phosphorylated ZAP70; single dose oral 10 mg/kg): 2 hours post dose
- phosphorylated ZAP70 sustained after 24 hours (phosphorylated ZAP70; single dose oral 10 mg/kg, after 24 hours): significant increase
- phosphorylated ZAP70 in comparison to baseline (phosphorylated ZAP70; [3]): significant increases
- increased phosphorylation of HS1 compared to DMSO control (pY397-HS1): 3-4 fold
- phosphorylated PLCγ2 in comparison to baseline (phosphorylated PLCγ2; [1]): significant increases
- time of peak increase of phosphorylated PLCγ2 (phosphorylated PLCγ2; [2]): 76 h
- time of maximal signal, phosphorylated PLCγ2 (phosphorylated PLCγ2; single dose oral 10 mg/kg): 2 hours post dose
- phosphorylated PLCγ2 in comparison to baseline (phosphorylated PLCγ2; [3]): significant increases
- increased phosphorylation of PLCγ1 compared to DMSO control (pY783-PLCg1): 2-3 fold
